Data from US20250057876A1, “METHODS FOR TREATING AND/OR PREVENTING LYMPHANGIOGENESIS-ASSOCIATED DISEASES BY USING GOLD NANOCLUSTERS” (MacKay Memorial Hospital, priority 2023, published 2025).

Tested on: ISO-induced cardiac injured mice
Test: Echocardiography in isoproterenol (ISO)-induced heart failure model
Assay type: in vivo, mouse
Conditions: co-treatment of MAZ-51 with FANCs in ISO-treated mice, vs ISO+FANC group
Experimental: Male 7-weeks-old C57BL/6 mice were purchased from BioLasco Inc. (Yilan, Taiwan), The mice were treated with FANCs (20 μM; about 0.57 mg/kg body weight) via an abdominal implant using osmotic pump system on Day 0. Then, the mice were subcutaneously treated with ISO (150 mg/kg) on Day 14. After 14 days from ISO injection, echocardiography was performed on Day 28 to measure the cardiac function of the mice. The animals were then sacrificed, and their hearts were harvested for histological and pathological examination.
The experimental echocardiography for the mice was conducted after the mice were anesthetized with isoflurane (Abbott Laboratories Ltd., England; delivered to achieve a concentration of 1-2% in a combination of oxygen and nitrous oxide mixed at a ratio of 50:50 with air). […] Parameters including tissue Doppler used to determine contractile velocity (TDI-S′), deformation-based circumferential systolic strain measure, and quantitative indices of tissue structure integrated backscatter intensity from dynamic myocardial motions, were used to assess systolic myocardial performance using ECG-gated off-line analysis on the EchoPac Workstation.

CN(C)c1ccc(/C=C2/C(=O)Nc3ccccc32)c2ccccc12 [MAZ-51, (3E)-3-[[4-(dimethylamino)naphthalen-1-yl]methylidene]-JH-inden-2-one]
effect on FANCs improved cardiac function: abolished
